The values that follow are results of earlier work, collected in patent US20170232026A1, “PHARMACEUTICAL COMPOSITION IN […] FOR VETERINARY USE AS A PROMOTER SYSTEM AND BIO-ADHESIVE IN ANT[…], AND METHOD FOR THE PRODUCTION THEREOF” (UNIVERSIDAD NACIONAL AUTONOMA DE MEXICO, priority 2014, published 2017).

Consider `CC[C@H](C)[C@H]1O[C@]2(CC[C@@H]1C)C[C@@H]1C[C@@H](C/C=C(\C)[C@@H](O[C@H]3C[C@H](OC)[C@@H](O[C@H]4C[C@H](OC)[C@@H](O)[C@H](C)O4)[C@H](C)O3)[C@@H](C)/C=C/C=C3\CO[C@@H]4[C@H](O)C(C)=C[C@@H](C(=O)O1)[C@]34O)O2` [Ivermectin, 22, 23-dihydroavermectin B1a], for which, under “ethanol at 95%”, the “solubility in ethanol at 95%” value is on record as “soluble”. In addition, the solubility in methanol result (methanol) is recorded as “soluble”. The solubility in water entry (water) is given as “insoluble”.
